Tests used:
AmpC = biological target: T1, AmpC (Enterobacter cloacae, UniProt P05364); assay: β-lactamase enzyme inhibition assay, p99 AmpC (nitrocefin substrate); format: biochemical
T1 construct: made in house; host or cells: E. coli BL21(DE3)
Procedure, shortened: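 Compounds are mixed with purified, untagged recombinant β-lactamase and held 15 min at 37 °C. Substrate is then added. Absorbance is followed immediately, and percent inhibition per concentration gives the IC50.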

[1] = system: P. aeruginosa expressing the Class B carbapenemase VIM-2; assay: Broth microdilution MIC assay with meropenem, P. aeruginosa VIM-2; format: cell-based; details: Fixed Mero (meropenem) 4 μg/mL; P. aerug. 2775 VIM-2
Procedure, shortened: (§1)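 CLSI broth microdilution in cation-adjusted Mueller Hinton broth measured growth of β-lactamase-expressing strains, grown 3-5 h beforehand. The β-lactam partner was held at 4 μg/ml final while test compound was titrated 2-fold from 16 to 0.125 μg/mL final. After 16-20 h at 37° C, the compound MIC was determined by eye.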

SHV-5 = biological target: T2, SHV-5 (Klebsiella pneumoniae, UniProt P0A3M1); assay: β-lactamase enzyme inhibition assay, SHV-5 (cefotaxime substrate); format: biochemical
T2 construct: made in house; host or cells: E. coli BL21(DE3)
Procedure, shortened: (§2)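 Compounds are mixed with purified, untagged recombinant β-lactamase and held 15 min at 37 °C. Substrate is then added: nitrocefin (100 μM final) for OXA-1, imipenem for KPC-2, cefotaxime for SHV-5. Absorbance is followed immediately, and percent inhibition per concentration gives the IC50.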

OXA-48 = OXA-48 (UniProt Q6XEC0); assay: β-lactamase enzyme inhibition assay, Class D oxacillinase; format: biochemical; details: read-out: OXA-48
KPC-2 = biological target: T3, KPC-2 (Klebsiella pneumoniae, UniProt Q9F663); assay: β-lactamase enzyme inhibition assay, KPC-2 (imipenem substrate); format: biochemical; details: Class A; imipenem substrate, 300 nm; read-out: KPC-2
T3 construct: made in house; host or cells: E. coli BL21(DE3)
Procedure, shortened: as §2

[2] = system: K. pneumoniae producing the Class D carbapenemase OXA-48; assay: Broth microdilution MIC assay with meropenem, K. pneumoniae OXA-48; format: cell-based; details: Fixed Mero (meropenem) 4 μg/mL; K. p. 11978 OXA-48
Procedure, shortened: as §1

[3] = system: K. pneumoniae expressing the Class A carbapenemase KPC-2; assay: Broth microdilution MIC assay with meropenem, K. pneumoniae KPC-2; format: cell-based; details: Fixed Mero (meropenem) 4 μg/mL; K. p. 156319 KPC-3
Procedure, shortened: as §1

[4] = system: E. coli expressing the Class A Extended Spectrum Beta-Lactamase (ESBL) CTX-M-15; assay: Broth microdilution MIC assay with ceftazidime, E. coli CTX-M-15; format: cell-based; details: Fixed CAZ (ceftazidime) 4 μg/mL; E. coli ESBL4 CTX-M-15
Procedure, shortened: as §1

VIM-2 = biological target: T4, VIM-2 (Escherichia coli, UniProt Q5U7L7); assay: β-lactamase enzyme inhibition assay, VIM-2 (nitrocefin substrate); format: biochemical; details: Class B; nitrocefin substrate, 486 nm; read-out: VIM-2
T4 construct: made in house; host or cells: E. coli BL21(DE3)
Procedure, shortened: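 Nitrocefin hydrolysis (100 μM final, A486 read for 10 min) by purified VIM-2 after a 15-min, 37° C enzyme–inhibitor preincubation. IC50 is the concentration halving initial hydrolysis rate, derived from percent inhibition against no-inhibitor wells.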

[5] = system: E. cloacae expressing the Class C P99; assay: Broth microdilution MIC assay with ceftazidime, E. cloacae P99; format: cell-based; details: Fixed CAZ (ceftazidime) 4 μg/mL; E. cl. 144200 p99 AmpC
Procedure, shortened: as §1

[6] = system: K. pneumoniae expressing the class A carbapenemase KPC-2 and the class B carbapenemase VIM-4; assay: Broth microdilution MIC assay with meropenem, K. pneumoniae KPC-2 and VIM-4; format: cell-based; details: Fixed Mero (meropenem) 4 μg/mL; K. p. A-1797 KPC-2 VIM-4
Procedure, shortened: as §1

T3 sequence (Q9F663 25-293, looked up): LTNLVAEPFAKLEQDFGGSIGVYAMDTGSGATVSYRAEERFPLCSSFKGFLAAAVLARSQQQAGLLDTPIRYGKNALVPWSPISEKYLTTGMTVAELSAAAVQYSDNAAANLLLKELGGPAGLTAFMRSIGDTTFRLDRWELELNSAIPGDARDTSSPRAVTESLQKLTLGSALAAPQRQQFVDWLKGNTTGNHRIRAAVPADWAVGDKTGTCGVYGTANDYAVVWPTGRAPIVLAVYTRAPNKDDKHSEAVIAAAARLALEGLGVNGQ
T2 sequence (P0A3M1 22-286): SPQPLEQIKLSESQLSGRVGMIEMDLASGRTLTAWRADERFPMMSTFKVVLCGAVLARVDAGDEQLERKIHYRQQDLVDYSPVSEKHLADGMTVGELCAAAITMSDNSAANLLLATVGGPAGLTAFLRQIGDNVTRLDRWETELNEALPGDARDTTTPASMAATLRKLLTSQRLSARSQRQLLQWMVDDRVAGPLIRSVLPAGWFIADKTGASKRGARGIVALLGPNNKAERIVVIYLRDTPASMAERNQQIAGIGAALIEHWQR
T1 sequence (P05364 21-381): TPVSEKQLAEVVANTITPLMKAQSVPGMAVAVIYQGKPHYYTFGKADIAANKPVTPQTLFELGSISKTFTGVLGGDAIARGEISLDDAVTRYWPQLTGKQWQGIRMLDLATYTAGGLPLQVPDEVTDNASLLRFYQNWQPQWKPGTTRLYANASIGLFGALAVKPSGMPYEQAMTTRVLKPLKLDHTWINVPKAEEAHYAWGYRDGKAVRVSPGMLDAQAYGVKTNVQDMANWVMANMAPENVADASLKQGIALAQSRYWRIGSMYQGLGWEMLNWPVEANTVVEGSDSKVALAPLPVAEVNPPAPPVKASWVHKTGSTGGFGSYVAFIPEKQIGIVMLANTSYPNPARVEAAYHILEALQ

Compound | IC50 (AmpC) [nM] | MIC (μg/mL) of Exemplary Compounds in presence of fixed β-lactams: P. aerug. 2775 VIM-2 [1] | IC50 (SHV-5) [nM] | IC50 (OXA-48) [nM] | IC50 (KPC-2) [nM] | MIC (μg/mL) of Exemplary Compounds in presence of fixed β-lactams: K. p. 11978 OXA-48 [2] | MIC (μg/mL) of Exemplary Compounds in presence of fixed β-lactams: K. p. 156319 KPC-3 [3] | MIC (μg/mL) of Exemplary Compounds in presence of fixed β-lactams: E. coli ESBL4 CTX-M-15 [4] | IC50 (VIM-2) [nM] | MIC (μg/mL) of Exemplary Compounds in presence of fixed β-lactams: E. cl. 144200 p99 AmpC [5] | MIC (μg/mL) of Exemplary Compounds in presence of fixed β-lactams: K. p. A-1797 KPC-2 VIM-4 [6]
NCCn1cc(Cn2nnc(CC(=O)N[C@H]3Cc4cccc(C(=O)O)c4OB3O)n2)nn1 [Example 124, (R)-3-(2-(2-((1-(2-aminoethyl)-1H-1,2,3-triazol-4-yl)methyl)-2H-tetrazol-5-yl)acetamido)-2-hydroxy-3,4-dihydro-2H-benzo[e][1,2]oxaborinine-8-carboxylic acid] | < 100 | A (A represents an MIC>16 μg/mL) | < 100 | 100 to 1000 | < 100 | B (B represents an MIC between 1 and 16 μg/mL inclusive) | B (B represents an MIC between 1 and 16 μg/mL inclusive) | C (C represents an MIC of <1 μg/mL) | 1000 to 10000 | C (C represents an MIC of <1 μg/mL) | B (B represents an MIC between 1 and 16 μg/mL inclusive)
NCc1ncn(CC(=O)N[C@H]2Cc3cccc(C(=O)O)c3OB2O)n1 [Example 125] | < 100 | C (C represents an MIC of <1 μg/mL) | 100 to 1000 | 1000 to 10000 | < 100 | B (B represents an MIC between 1 and 16 μg/mL inclusive) | C (C represents an MIC of <1 μg/mL) | C (C represents an MIC of <1 μg/mL) | < 100 | C (C represents an MIC of <1 μg/mL) | C (C represents an MIC of <1 μg/mL)

From patent US11046716B2, “Beta-lactamase inhibitors” (priority 2015, dated 2021)
